Reference: ChEMBL document CHEMBL1201862, “PubChem BioAssay data set” (2004)
Activity calls are given as the source filed them.

Legend:
[1] = target: Alkaline phosphatase, placental type (Homo sapiens, UniProt P05187); assay: PLAP enzyme inhibitors, confirmation, biochemical, luminescence (AID 1512); assay type: functional
[2] = target: Alkaline phosphatase, tissue-nonspecific isozyme (Homo sapiens, UniProt P05186); assay: human TNAP enzyme inhibitors, SAR follow-up, biochemical, luminescent, dose response (AID 1056)
[3] = inhibitors of firefly luciferase expression or activity, dose response, H4 neuroglioma cells, luminescence (AID 1990); assay type: functional, cell-based
BJ [4] = assay: cytotoxicity toward BJ-TERT fibroblasts, dose response, cell-based, RAS-independent, luminescence (AID 1933); assay type: functional; conditions: Homo sapiens
[5] = Luminescence Cell-Based Dose Response HTS to Identify Inhibitors of 5'UTR Stem-Loop Driven Prion Protein mRNA Translation in H4 Neuroglioblastoma Cells. [Related pubchem assays: 1827 (Project Summary), 1813 (Primary HTS)]; assay type: functional
BJ [6] = assay: cells; assay type: functional, cell-based; conditions: Homo sapiens
BJ [7] = assay: cytotoxicity toward BJ-TERT-LT-ST fibroblasts, dose response, cell-based, RAS-independent, luminescence (AID 1935); assay type: functional; conditions: Homo sapiens;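 also: BJ fibroblasts immortalized with TERT plus LT and ST oncogenes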
[8] = cytotoxicity toward DRD oncogenic fibroblasts, dose response, cell-based, non-viral oncogenic, luminescence (AID 1934); assay type: functional; conditions: Homo sapiens
[9] = Intein inhibitors as potential Tuberculosis drugs, a cytotoxicity screen. [Related pubchem assays (depositor defined):AID2221, AID2223, AID434968, AID435010, AID449749, AID449750, AID489010]; assay type: functional
[10] = target: T1, Replicative DNA helicase DnaB (Mycobacterium tuberculosis, UniProt P9WMR3); assay: DnaB intein splicing inhibitors, dose response, biochemical, cell-free fluorescence (AID 449749); assay type: functional
T1 sequence (P9WMR3 whole entry): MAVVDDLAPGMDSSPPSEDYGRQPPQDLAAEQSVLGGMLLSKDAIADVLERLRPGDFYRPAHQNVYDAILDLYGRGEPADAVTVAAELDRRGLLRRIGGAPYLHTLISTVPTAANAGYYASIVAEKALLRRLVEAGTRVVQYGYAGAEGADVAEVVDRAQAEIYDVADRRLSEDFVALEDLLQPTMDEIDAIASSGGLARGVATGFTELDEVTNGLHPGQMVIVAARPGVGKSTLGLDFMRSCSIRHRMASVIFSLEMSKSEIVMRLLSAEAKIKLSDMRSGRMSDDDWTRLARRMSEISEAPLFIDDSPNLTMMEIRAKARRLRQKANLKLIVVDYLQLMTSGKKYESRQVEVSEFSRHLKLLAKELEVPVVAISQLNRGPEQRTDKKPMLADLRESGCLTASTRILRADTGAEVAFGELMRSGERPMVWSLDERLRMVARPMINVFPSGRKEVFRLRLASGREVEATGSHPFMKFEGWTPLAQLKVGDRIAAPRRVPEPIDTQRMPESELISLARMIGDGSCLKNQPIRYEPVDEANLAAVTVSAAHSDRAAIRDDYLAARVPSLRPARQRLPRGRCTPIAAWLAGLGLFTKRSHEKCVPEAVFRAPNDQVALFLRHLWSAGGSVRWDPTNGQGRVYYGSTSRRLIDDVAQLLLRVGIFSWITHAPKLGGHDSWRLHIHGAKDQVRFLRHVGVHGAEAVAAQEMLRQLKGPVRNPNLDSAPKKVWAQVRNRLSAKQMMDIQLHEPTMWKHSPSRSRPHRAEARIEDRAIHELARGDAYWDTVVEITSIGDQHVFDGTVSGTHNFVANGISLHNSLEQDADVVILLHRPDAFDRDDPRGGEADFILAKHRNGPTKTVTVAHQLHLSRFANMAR

[11] = target: T2, Apoptotic protease-activating factor 1 (Homo sapiens, UniProt O14727); assay type: functional
T2 sequence (O14727 whole entry): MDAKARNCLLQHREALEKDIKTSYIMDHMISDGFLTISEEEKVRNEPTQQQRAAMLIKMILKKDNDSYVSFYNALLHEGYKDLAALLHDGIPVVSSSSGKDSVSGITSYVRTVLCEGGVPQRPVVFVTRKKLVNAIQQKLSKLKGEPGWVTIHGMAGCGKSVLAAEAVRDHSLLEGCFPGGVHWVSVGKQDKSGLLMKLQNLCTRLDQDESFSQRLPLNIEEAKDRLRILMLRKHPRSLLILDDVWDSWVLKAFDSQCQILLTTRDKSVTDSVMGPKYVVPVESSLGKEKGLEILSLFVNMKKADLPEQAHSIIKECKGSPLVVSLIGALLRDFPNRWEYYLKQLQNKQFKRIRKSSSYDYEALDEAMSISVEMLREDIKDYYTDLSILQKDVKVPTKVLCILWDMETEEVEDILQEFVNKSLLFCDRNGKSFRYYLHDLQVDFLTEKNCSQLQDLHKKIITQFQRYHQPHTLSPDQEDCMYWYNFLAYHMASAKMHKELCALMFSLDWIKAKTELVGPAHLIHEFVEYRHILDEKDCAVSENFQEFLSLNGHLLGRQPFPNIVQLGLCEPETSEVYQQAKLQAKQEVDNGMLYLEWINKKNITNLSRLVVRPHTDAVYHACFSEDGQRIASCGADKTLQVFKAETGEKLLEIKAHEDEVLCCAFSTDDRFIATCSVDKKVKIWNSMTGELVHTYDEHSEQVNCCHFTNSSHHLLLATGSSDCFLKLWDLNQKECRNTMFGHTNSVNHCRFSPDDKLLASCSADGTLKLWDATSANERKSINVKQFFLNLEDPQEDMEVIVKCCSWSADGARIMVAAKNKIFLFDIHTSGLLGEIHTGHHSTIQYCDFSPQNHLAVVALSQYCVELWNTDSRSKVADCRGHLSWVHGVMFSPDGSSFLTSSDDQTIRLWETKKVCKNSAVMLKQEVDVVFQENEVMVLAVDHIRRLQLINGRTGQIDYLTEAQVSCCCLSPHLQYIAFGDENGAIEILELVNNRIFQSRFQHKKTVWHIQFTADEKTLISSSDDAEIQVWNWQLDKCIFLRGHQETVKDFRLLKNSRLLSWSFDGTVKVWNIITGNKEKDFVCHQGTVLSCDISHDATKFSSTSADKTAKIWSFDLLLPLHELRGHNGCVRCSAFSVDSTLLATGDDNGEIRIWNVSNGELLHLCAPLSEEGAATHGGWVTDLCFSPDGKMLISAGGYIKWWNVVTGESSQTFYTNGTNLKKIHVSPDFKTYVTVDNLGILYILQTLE

Protein RecA = target: T3, Protein RecA (Mycobacterium tuberculosis, UniProt P9WHJ3); assay: Fluorescence Cell-Free Homogeneous Dose Retest to Identify Inhibitors of RecA-Intein Splicing Activity. [Related pubchem assays (depositor defined):AID2097, AID2223, AID489010, AID492950]; assay type: functional
T3 sequence (P9WHJ3 whole entry): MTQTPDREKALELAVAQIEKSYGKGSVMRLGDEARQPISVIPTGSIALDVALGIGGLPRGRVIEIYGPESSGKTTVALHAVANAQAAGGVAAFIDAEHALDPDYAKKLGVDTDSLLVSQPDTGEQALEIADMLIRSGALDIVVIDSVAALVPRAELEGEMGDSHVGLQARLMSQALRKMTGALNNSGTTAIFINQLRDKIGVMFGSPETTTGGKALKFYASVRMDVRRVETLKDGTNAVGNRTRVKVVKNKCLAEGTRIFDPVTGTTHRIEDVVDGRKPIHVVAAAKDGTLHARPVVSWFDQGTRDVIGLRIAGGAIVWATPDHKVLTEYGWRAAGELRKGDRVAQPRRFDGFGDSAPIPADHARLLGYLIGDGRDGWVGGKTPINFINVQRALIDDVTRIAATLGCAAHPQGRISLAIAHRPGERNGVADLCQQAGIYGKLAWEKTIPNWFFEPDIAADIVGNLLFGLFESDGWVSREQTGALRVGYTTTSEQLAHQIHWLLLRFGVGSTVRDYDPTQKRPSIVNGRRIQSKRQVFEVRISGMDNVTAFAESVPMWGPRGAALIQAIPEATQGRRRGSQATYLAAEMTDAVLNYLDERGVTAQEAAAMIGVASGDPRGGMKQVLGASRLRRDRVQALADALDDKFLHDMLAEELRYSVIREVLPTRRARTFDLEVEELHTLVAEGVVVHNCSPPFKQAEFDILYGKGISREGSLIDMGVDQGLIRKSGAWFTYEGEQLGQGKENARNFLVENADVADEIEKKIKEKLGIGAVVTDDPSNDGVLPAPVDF

INS1 = assay: beta cell apoptosis inhibitors, cytokine rescue, dose response, luminescence, retest (AID 449756); assay type: functional, cell-based; conditions: Rattus norvegicus;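 also: cell death triggered by IL-1 beta plus TNF-alpha plus IFN-gamma mixture; protective hits raise ATP signal compared with cytokine alone wells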
[12] = target: Mitochondrial peptide methionine sulfoxide reductase (Bos taurus, UniProt P54149); assay type: functional;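 also: absorbance read-out, biochemical high-throughput dose-response screen for MsrA inhibitors, confirmatory; recombinant bovine MsrA coupled to E. coli TrxB with NADPH and selenocystamine; potency is for inhibitors of MsrA activity on DMSO substrate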
Hexokinase = Hexokinase (Trypanosoma brucei, UniProt Q38C41); assay: Confirmation assay for inhibitors of Trypanosoma brucei hexokinase 1-Analogue-first series. [Related pubchem assays (depositor defined):AID1430, AID1632, AID2516, AID2560, AID2579, AID2600, AID449725, AID492951]; assay type: functional
[13] = target: Glucose-6-phosphate 1-dehydrogenase (Homo sapiens, UniProt P11413); assay: human G6PD enzyme inhibitors, dose response, selectivity assay for P. falciparum G6PD inhibitor project, biochemical, fluorescence (AID 504792); assay type: functional
[14] = target: T4, Polyadenylate-binding protein 1 (Homo sapiens, UniProt P11940); assay: PABP1 MLLE–PAM2 interaction inhibitors, dose response, miRNA deadenylation inhibitor project, biochemical, fluorescence polarization, Cy5-PAM2 peptide, secondary (AID 602260); assay type: functional; conditions: read-out: IC50_Mean
[15] = target: T4, Polyadenylate-binding protein 1; assay: PABP1 MLLE–PAM2 binding inhibitor potency, dose response, biochemical, fluorescence polarization, FITC-PAM2 peptide (AID 602259); assay type: functional; conditions: read-out: IC50_Mean
T-cell = assay: inhibitors of CD8+ T cell–vesicle binding, dose response, mouse 2C CD8+ T cells, flow cytometry (AID 485284); assay type: functional
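For CC50 in this document: cells exposed to compound for 72 hours before luminescence readout.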

T4 sequence (P11940 whole entry): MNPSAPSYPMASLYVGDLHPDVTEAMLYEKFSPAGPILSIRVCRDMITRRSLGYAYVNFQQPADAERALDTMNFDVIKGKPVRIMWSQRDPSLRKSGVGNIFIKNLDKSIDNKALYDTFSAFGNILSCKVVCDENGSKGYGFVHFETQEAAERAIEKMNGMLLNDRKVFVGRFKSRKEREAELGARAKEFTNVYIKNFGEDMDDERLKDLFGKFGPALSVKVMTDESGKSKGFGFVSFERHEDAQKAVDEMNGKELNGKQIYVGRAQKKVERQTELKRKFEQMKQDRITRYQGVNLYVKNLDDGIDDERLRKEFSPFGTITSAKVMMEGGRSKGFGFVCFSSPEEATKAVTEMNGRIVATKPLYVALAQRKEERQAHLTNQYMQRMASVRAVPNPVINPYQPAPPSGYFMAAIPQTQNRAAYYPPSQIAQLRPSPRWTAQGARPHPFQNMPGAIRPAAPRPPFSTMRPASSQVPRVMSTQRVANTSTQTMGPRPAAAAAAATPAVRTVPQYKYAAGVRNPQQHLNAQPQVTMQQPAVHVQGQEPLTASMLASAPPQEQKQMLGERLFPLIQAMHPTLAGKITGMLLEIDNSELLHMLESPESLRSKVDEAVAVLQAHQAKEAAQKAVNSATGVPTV
Sequence of Alkaline phosphatase, tissue-nonspecific isozyme (P05186 whole entry): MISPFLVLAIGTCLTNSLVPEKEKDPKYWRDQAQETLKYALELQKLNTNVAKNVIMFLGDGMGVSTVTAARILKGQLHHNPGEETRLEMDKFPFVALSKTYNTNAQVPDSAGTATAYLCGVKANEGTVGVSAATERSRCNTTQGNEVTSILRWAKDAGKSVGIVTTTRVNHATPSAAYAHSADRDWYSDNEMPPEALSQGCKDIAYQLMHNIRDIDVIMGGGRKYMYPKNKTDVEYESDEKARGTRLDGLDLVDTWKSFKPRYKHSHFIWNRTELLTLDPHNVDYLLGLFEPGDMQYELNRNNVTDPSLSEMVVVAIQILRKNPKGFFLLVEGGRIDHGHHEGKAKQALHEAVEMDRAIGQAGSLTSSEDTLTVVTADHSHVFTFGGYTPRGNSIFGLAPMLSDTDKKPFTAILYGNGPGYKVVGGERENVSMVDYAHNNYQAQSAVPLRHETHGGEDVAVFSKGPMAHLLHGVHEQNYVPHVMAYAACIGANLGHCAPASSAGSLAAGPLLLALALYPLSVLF
Sequence of Alkaline phosphatase, placental type (P05187 whole entry): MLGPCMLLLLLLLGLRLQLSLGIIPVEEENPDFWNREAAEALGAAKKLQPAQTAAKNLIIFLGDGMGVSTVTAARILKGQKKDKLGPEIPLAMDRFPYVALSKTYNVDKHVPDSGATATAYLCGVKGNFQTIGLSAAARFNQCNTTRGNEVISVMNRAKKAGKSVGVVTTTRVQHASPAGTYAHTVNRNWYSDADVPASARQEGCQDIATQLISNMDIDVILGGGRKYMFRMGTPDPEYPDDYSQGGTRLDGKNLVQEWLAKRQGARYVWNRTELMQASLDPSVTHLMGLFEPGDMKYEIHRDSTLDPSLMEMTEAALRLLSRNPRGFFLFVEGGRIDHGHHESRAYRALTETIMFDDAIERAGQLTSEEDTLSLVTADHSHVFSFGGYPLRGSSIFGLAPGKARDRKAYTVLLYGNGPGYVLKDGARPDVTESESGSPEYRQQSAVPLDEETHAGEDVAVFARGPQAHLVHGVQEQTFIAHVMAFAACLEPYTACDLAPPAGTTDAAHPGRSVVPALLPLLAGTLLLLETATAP
Sequence of Glucose-6-phosphate 1-dehydrogenase (P11413 whole entry): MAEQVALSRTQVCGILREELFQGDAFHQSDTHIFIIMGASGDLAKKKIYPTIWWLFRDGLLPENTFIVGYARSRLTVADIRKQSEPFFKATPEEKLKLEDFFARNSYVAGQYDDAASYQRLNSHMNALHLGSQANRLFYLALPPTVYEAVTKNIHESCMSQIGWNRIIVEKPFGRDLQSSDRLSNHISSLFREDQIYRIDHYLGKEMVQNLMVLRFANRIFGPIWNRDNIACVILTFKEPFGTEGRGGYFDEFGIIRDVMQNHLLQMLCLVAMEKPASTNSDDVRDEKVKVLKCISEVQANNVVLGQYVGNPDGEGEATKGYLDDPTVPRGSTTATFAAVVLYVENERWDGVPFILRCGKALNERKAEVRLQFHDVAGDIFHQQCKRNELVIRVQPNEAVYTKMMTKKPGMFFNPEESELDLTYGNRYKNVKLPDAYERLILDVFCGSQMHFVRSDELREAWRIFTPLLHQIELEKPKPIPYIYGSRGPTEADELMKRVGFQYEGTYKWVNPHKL
Sequence of Mitochondrial peptide methionine sulfoxide reductase (P54149 whole entry): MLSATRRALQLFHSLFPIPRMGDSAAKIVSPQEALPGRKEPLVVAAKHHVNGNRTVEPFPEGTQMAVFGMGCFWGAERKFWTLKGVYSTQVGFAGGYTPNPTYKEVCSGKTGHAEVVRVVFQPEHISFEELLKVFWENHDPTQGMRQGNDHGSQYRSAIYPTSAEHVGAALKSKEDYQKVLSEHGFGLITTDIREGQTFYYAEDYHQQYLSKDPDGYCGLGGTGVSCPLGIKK
Sequence of Hexokinase (Q38C41 whole entry): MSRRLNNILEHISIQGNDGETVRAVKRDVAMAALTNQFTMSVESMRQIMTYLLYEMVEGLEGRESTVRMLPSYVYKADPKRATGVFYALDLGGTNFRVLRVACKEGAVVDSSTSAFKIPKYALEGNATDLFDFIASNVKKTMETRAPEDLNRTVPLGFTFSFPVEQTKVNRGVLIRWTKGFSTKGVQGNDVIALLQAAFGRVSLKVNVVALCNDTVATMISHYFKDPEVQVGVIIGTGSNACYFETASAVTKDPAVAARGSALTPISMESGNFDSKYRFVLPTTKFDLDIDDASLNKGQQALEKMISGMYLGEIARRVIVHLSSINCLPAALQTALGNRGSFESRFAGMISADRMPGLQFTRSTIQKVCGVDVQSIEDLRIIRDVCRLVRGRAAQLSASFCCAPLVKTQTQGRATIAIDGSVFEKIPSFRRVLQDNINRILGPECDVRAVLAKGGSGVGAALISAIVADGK

O=C(CNc1ccncc1)c1ccc(O)c(O)c1
IC50 [1]: > 100 µM (inactive)
IC50 [2]: > 100 µM (inactive)

Cc1oc2c(c1C(=O)N1CCOCC1)C(=O)c1ccccc1C2=O
EC50 [3]: 8.24 µM (active)
EC50 (BJ [4]): 11.8 µM (active)
EC50 [5]: 8.93 µM (active)
EC50 (BJ [6]): 13.4 µM (active)
EC50 (BJ [7]): > 75 µM (inconclusive)
EC50 [8]: 10.5 µM (active)
CC50 [9]: 6.26 µM (active)
AC50 [10]: 1.41 µM (active)
IC50 [11]: 13.9 µM (active)
EC50 (Protein RecA): 0.506 µM (active)
AC50 (INS1): 2.45 µM (active)
IC50 [12]: 64.3 µM (inactive)

N#Cc1ccc2c(=O)n(-c3ccccc3)sc2c1
IC50 (Hexokinase): 6.66 µM (active)
IC50 [13]: 7.11 µM (active)
IC50 [14]: > 66 µM (inactive)
IC50 [15]: > 66 µM (inactive)

CCOc1ccccc1NC(=O)c1ccc(F)c(S(=O)(=O)N2CCC3(CC2)OCCO3)c1
EC50 (T-cell): 16.4 µM (active)
